Results from PMC11655904, “[^89Zr]Zr-DFO-TOC: a novel radiopharmaceutical for PET imaging of somatostatin receptor positive neuroendocrine tumors” (EJNMMI Radiopharmacy and Chemistry, 2024).
Values joined by “and” are separate entries in the source; they are usually repeats but may differ in a detail not shown here. Equal values may be shown once. “Also recorded” adds a separate entry of the source.

Legend:
[1] = system: SSTR2; design: method as in Buscail et al. [1994]; settings: ref Buscail et al. [1994]; cited from earlier work
Text: (§1) Significant progress has been made in recent years towards understanding the underlying biology and molecular pathways involved with NETs, particularly the role of somatostatin receptors (SSTRs) and their downstream pathways. SSTRs (SSTR1, 2 A/2B, 3, 4, and 5) belong to a family of G protein-coupled receptors with seven transmembrane-spanning proteins that bind the cyclic peptide somatostatin (SST) (Theodoropoulou and Stalla [2013]). SST regulates cell growth and inhibits hormone secretion in the endocrine and exocrine systems (Brereton et al. [2015]; Ampofo et al. [2020]). Prior research has ...

[2] = system: SSTR2, AR42J; settings: ref Vaidyanathan et al. [2003], Hofland et al. [1999]; cited from earlier work
[3] = system: PANC-1 cells (SSTR2 minimal expression); assay: Receptor binding and competitive receptor blocking assay, PANC-1 cells; format: cell-based
Method: (§2) Cells were seeded in Fisherbrand™ 12-well surface-treated culture plates with 1 million cells per well for each cell line and were allowed to adhere overnight under normal cell culture conditions. Samples were not purified to remove excess DFO-TOC. For receptor binding and blocking experiments, each well was incubated with [^89Zr]Zr-DFO-TOC (0.025 nmol DFO-TOC per well, 1 µCi (0.037 MBq) of [^89Zr]) in 1mL of cell media. For receptor blocking experiments,
(§3) 2.5 nmol unlabeled DFO-TOC was added to each well, in addition to [^89Zr]Zr-DFO-TOC. Culture plates were incubated with the tracer for 1 h, 3 h, 1 day, 3 days, 5 days, and 6 days. At each timepoint, the media was removed and the cells were washed with PBS twice. Cells were detached using 1 mL of 1 M NaOH and collected in a microcentrifuge tube for analysis using a Revvity (Waltham, MA) Wizard2 Gamma Counter. BCA assays were used to estimate protein concentrations per the manufacturer’s instructions.
(§4) All data was analyzed using GraphPad Prism (San Diego, CA) and is presented as a mean ± standard deviation. Statistical analysis was completed using a paired nonparametric t-test (α = 0.05) to compare cell total binding and cell blocking groups.

[4] = system: PC-3 cells (SSTR2 moderate expression); assay: Receptor binding and competitive receptor blocking assay, PC-3 cells; format: cell-based; settings: 2.5 nmol unlabeled DFO-TOC (100x excess) as blocking agent; at 120 h; p = 0.0001; paired nonparametric t-test
Method: as §2, §3, §4

[5] = system: PC-3 cells; assay: Internalization assay, PC-3 cells; format: cell-based
Method: (§5) Cells were seeded in Fisherbrand™ 12-well surface-treated culture plates with 1 million cells per well for each cell line and were allowed to grow overnight under cell culture conditions. For internalization experiments, each well received 0.025 nmol DFO-TOC radiolabeled with 1 µCi (0.037 MBq) of [^89Zr]Zr-DFO-TOC in 1 mL of cell media. Plates were incubated with [^89Zr]Zr-DFO-TOC for 30 min, 1 h, and 3 h. Cells were detached from the wells using 800 µL of 0.05% Gibco trypsin incubated for 5 min. Cells were sedimented using a benchtop centrifuge at 7000 g for 5 min. The supernatant was removed, and the cells were resuspended in 200 µL of 0.1 M Supelco sodium citrate (pH 2) for 5 min. The cells were sedimented using a benchtop microcentrifuge and the supernatant was added to the trypsin. The supernatant and cell pellet activities were determined using the Wizard2 Gamma Counter.

[6] = system: AR42J cells; assay: Internalization assay, AR42J cells; format: cell-based; settings: 0.025 nmol DFO-TOC, 1 µCi per well; time points 30 min, 1 h, 3 h; trypsin and sodium citrate pH 2 strip
Method: as §5

[7] = Benchtop stability of the radiotracer (radio-HPLC and iTLC); format: physicochemical; settings: mean ± standard deviation
Method: To neutralize [^89Zr]Zr-oxalate, an equal volume of [^89Zr]Zr-oxalate and 0.5 M Thermo Scientific HEPES (concentration 99%) buffer were mixed. The pH of the sample was then adjusted using 5.0 M NaOH. For all radiolabeling experiments, 100 µCi (3.7 MBq) of ^89Zr (pH ~ 7.4) was incubated with varying molar quantities of DFO-TOC and 1.0 M HEPES buffer in a final incubation volume of 200 µL. The reaction was incubated on a thermomixer at 37 °C and 800 rpm for 30 min. The molar activity was determined by radiolabeling 1 nmol of DFO-TOC with varying activities of ^89Zr up to 1500 µCi (55.5 MBq) and 1.0 M HEPES buffer in a final incubation volume of 200 µL. Samples were incubated using the same conditions as the radiochemical yield assays. Samples were analyzed using an Agilent (Santa Clara, CA) 1260 Infinity II high-performance liquid chromatography (HPLC) instrument with a LabLogic (Chantilly, VA) Flow-RAM radio-HPLC detector. Radiochemical yields were determined via radio-HPLC using a reversed-phase C18 selectivity column (5 μm particle size, 150 mm length, and 4.6 mm diameter).
The samples were assessed for benchtop stability and stability in mouse serum only if a radiochemical yield of 95% or greater was achieved. Benchtop stability was assessed at time points of 30 min, 1 h, 1 day, 2 days, 3 days, 6 days, and 9 days using an Eckert & Ziegler (Valencia, CA) AR-2000 instant Thin Layer Chromatography (iTLC) and radio-HPLC. Diethylenetriamine pentaacetic acid was used as the mobile phase for iTLC, while radio-HPLC used the gradient described previously. Stability in mouse serum was assessed by adding 100 µL of a 200 [drawing 3] […] No further sample purification was conducted before injection on the radio-HPLC. All samples remained on a thermomixer at 37 °C and 800 rpm, and aliquots were removed for analysis by using iTLC and radio-HPLC, after 1 h, 1 day, 2 days, 3 days, 5 days, 6 days, and 9 days.

[8] = system: PANC-1 cells; assay: Internalization assay, PANC-1 cells; format: cell-based; settings: 0.025 nmol DFO-TOC, 1 µCi per well; time points 30 min, 1 h, 3 h; trypsin and sodium citrate pH 2 strip
Method: as §5

[9] = 100 µL of tracer sample (200 µCi, 7.4 MBq) in 400 µL prefiltered mouse serum, 37 °C, 800 rpm, mean ± standard deviation
Method: To neutralize [^89Zr]Zr-oxalate, an equal volume of [^89Zr]Zr-oxalate and 0.5 M Thermo Scientific HEPES (concentration 99%) buffer were mixed. The pH of the sample was then adjusted using 5.0 M NaOH. For all radiolabeling experiments, 100 µCi (3.7 MBq) of ^89Zr (pH ~ 7.4) was incubated with varying molar quantities of DFO-TOC and 1.0 M HEPES buffer in a final incubation volume of 200 µL. The reaction was incubated on a thermomixer at 37 °C and 800 rpm for 30 min. The molar activity was determined by radiolabeling 1 nmol of DFO-TOC with varying activities of ^89Zr up to 1500 µCi (55.5 MBq) and 1.0 M HEPES buffer in a final incubation volume of 200 µL. […] Samples were analyzed using an Agilent (Santa Clara, CA) 1260 Infinity II high-performance liquid chromatography (HPLC) instrument with a LabLogic (Chantilly, VA) Flow-RAM radio-HPLC detector. Radiochemical yields were determined via radio-HPLC using a reversed-phase C18 selectivity column (5 μm particle size, 150 mm length, and 4.6 mm diameter).
The samples were assessed for benchtop stability and stability in mouse serum only if a radiochemical yield of 95% or greater was achieved. Benchtop stability was assessed at time points of 30 min, 1 h, 1 day, 2 days, 3 days, 6 days, and 9 days using an Eckert & Ziegler (Valencia, CA) AR-2000 instant Thin Layer Chromatography (iTLC) and radio-HPLC. […]

[10] = system: AR42J cells (SSTR2 high expression); assay: Receptor binding and competitive receptor blocking assay, AR42J cells; format: cell-based
Method: as §2, §3, §4

[11] = ref Brereton et al. [2015]; Lamberts et al. [1996]; cited from earlier work
Text: as §1, with “[2020]).” for “[2020]). Prior research has ...”

In the case of octreotide, the “receptor affinity for SSTR2” value [1] is listed as “high receptor affinity”.
In the case of [Tyr3, Thr8]-octreotide, the “earliest time at which SSTR2 internalization was observed” value [2] is given as 2.5 min.
With `CC(=O)N(O)CCCCCNC(=O)CCC(=O)N(O)CCCCCNC(=O)CCC(=O)N(O)CCCCCNC(=S)Nc1ccc(NC(=S)NCCCCCC(=O)N[C@H](Cc2ccccc2)C(=O)N[C@H]2CSSC[C@@H](C(=O)N[C@H](CO)[C@@H](C)O)NC(=O)[C@H]([C@@H](C)O)NC(=O)[C@H](CCCCN)NC(=O)[C@@H](Cc3c[nH]c4ccccc34)NC(=O)[C@H](Cc3ccc(O)cc3)NC2=O)cc1` [[^89Zr]Zr-DFO-TOC, metal not drawn] the “tracer uptake in PANC-1 cells” value ([3]; 0.025 nmol DFO-TOC, 1 µCi per well, attributed to low SSTR2 expression) was “Low”, the “blocking versus total binding groups, PANC-1” value ([3]; 2.5 nmol unlabeled DFO-TOC (100x excess) as blocking agent, all time points, paired nonparametric t-test) was “No statistically significant difference” and the “blocking versus total binding groups, PC-3” value [4] was “statistically significant difference”. The “time of maximum cell internalization, PC-3” value ([5]; 0.025 nmol DFO-TOC, 1 µCi per well, time points 30 min, 1 h, 3 h, trypsin and sodium citrate pH 2 strip) was 3 h, the “percentage of tracer internalized in PC-3 compared with AR42J and PANC-1” value ([5]; time points up to 3 h) was “higher percentage of the tracer was internalized” and the “time of maximum cell internalization, AR42J” value [6] was 3 h. The “radiochemical yield on the benchtop after 9 days, iTLC” value ([7]; iTLC, diethylenetriamine pentaacetic acid mobile phase) was 97 ± 4%, the “radiochemical yield on the benchtop after 9 days, radio-HPLC” value ([7]; radio-HPLC, C18, 0.1% TFA water/acetonitrile gradient) was 89.6% and 90 ± 4% and the “time of maximum cell internalization, PANC-1” value [8] was 3 h. The “radiochemical yield in mouse serum after 9 days, radio-HPLC” value [9] was 89 ± 2%, the “tracer uptake (total binding) in AR42J cells compared with the other cell lines” value ([10]; 0.025 nmol DFO-TOC, 1 µCi per well, 1 million cells per well, 1 h to 6 days, gamma counter, P < 0.0001 vs PC-3 and p = 0.0001 vs PANC-1 after 1 h) was “highest uptake; also recorded: higher uptake than PC-3 and PANC-1 cell lines at all time points” and the “time at which AR42J cell binding reached saturation” value ([10]; 0.025 nmol DFO-TOC, 1 µCi per well, time points 1 h to 6 days) was 5 days. For the same compound, the “blocking versus total binding groups, AR42J” value ([10]; 2.5 nmol unlabeled DFO-TOC (100x excess) as blocking agent, after 1 h, p < 0.0001, paired nonparametric t-test) was “statistically significant difference”.
For somatostatin [SST], the bioactive half-life [11] is listed as < 1 min.
